Assay results as given in ChEMBL document CHEMBL5260817, “Polyamine-based analogs and conjugates as antikinetoplastid agents” (Eur J Med Chem, 2017).
pIC50: −log10 of the molar value. Blank lines part the entries; values can stand above or below the compound they belong to.

Legend:
[1] = Inhibition of Trypanosoma brucei MetRS in presence of ATP
[2] = Anticancer activity against human CRL-8155 cells assessed as cell growth inhibition; type: functional, cell-based; conditions: CRL8155
[3] = tested on: Trypanosoma brucei; assay: Trypanocidal activity against Trypanosoma brucei trypomastigotes; type: functional, organism-based
[4] = Half life in BALB/c mouse plasma infected with Trypanosoma brucei 427 strain at 25 mg/kg/day, sc measured after 3 days; type: ADME, organism-based; conditions: time 3 day
[5] = tested on: HL-60; assay: Anticancer activity against human HL-60 cells assessed as cell growth inhibition by trypan blue staining based assay; type: functional
[6] = tested on: Leishmania major; assay: Antiprotozoal activity against Leishmania major amastigotes; type: functional, organism-based
[7] = tested on: Trypanosoma brucei; assay: Antiprotozoal activity against Trypanosoma brucei clone 427-221a; type: functional, organism-based
[8] = tested on: Trypanosoma brucei rhodesiense; assay: Antiprotozoal activity against Trypanosoma brucei rhodesiense STIB900 strain; type: functional, organism-based
[9] = Inhibition of TryR (unknown origin); type: functional
[10] = tested on: L6; assay: Anticancer activity against rat L6 cells assessed as cell growth inhibition; type: functional, cell-based
[11] = tested on: Leishmania donovani; assay: Antiprotozoal activity against Leishmania donovani promastigote measured after 72 hrs by LDH assay; type: functional, organism-based
[12] = tested on: Trypanosoma brucei brucei; assay: Antiprotozoal activity against Trypanosoma brucei brucei Lab 110 EATRO strain; type: functional, organism-based
[13] = Inhibition of Trypanosoma brucei rhodesiense TryR
[14] = molecular target: Trypanothione reductase (Trypanosoma brucei brucei, UniProt P39051); assay: Inhibition of Trypanosoma brucei TryR
Trypanothione reductase, sequence (P39051 whole entry): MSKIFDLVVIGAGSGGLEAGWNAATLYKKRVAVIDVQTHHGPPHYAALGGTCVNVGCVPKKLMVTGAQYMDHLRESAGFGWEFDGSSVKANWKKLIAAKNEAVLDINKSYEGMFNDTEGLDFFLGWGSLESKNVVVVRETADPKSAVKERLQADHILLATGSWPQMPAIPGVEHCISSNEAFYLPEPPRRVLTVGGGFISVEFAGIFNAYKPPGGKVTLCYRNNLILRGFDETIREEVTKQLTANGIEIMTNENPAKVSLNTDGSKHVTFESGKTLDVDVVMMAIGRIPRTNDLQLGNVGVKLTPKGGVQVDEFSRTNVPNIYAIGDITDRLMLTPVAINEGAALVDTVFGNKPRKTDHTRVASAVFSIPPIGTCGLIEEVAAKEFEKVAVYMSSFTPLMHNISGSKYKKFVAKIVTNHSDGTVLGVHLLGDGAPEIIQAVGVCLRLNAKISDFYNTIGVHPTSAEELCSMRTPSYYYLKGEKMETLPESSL

[15] = tested on: Trypanosoma brucei; assay: Trypanocidal activity against Trypanosoma brucei; type: functional, organism-based

Structure (SMILES): N=C(NC1CCCCCC1)c1ccc(N2CCN(c3ccc(C(=N)NC4CCCCCC4)cc3)CC2)cc1
- pIC50 [11]: 5.32
- pIC50 [12]: 7.74

Structure (SMILES): C[N+](C)(CCCNc1cc(Cl)ccc1Sc1ccccc1)Cc1ccc(Cl)c(Cl)c1
- pIC50 [13]: 5.30

Structure (SMILES): Clc1ccc2c(c1)N(CCCN1CCN(CCCc3ccccc3)CC1)c1ccccc1S2
- pIC50 [14]: 6.12
- pIC50 [15]: 6.11

Now from value to compound, other results behind:

- half-life [4]: 1 h
Structure (SMILES): Oc1cc(NCCCNCc2cc(Cl)cc(Cl)c2)nc2ccccc12
- pIC50 [1]: 8.10
- pIC50 [2]: < 4.70
- pIC50 [3]: 8.40

- pIC50 [5]: 6.00
- pIC50 [6]: 5.22
- pIC50 [7]: 9.00
Structure (SMILES): COc1ccc2nc3cc(Cl)ccc3c(NCCCN(C)CCCNc3c4ccc(Cl)cc4nc4ccc(OC)cc34)c2c1

- pIC50 [8]: 6.22
- pIC50 [9]: 5.05
Structure (SMILES): C[N+](C)(CCCNc1cc(Cl)ccc1Sc1ccccc1)Cc1ccc([N+](=O)[O-])o1
- pIC50 [10]: < 3.77
